Tests used:
Sprague Dawley rats = experiment: Test of anti-depressive activity (forced swimming immobility); type: in vivo; settings: Rattus norvegicus, ip, immobility during 5 minutes, intraperitoneally 24 hours, 5 hours and a half-hour before the test, read-out: DA50 (the source's name)
Experimental: (4) Test of anti-depressive activity
The tests were carried out on groups of 5 Sprague Dawley rats and the non-conditioned animals were put for 15 minutes in a vertical perspex cylinder (diameter: 18 cm, height: […]) containing water at 25° C. to a height of 15 cm (initial swimming test). They were then dried for 15 minutes in an enclosure heated to 32° C. and 24 hours later, they were replaced in the cylinder filled with water, and the total duration of the periods of immobility was measured during 5 minutes. The compound was administered intraperitonally successively 24 hours, 5 hours and a half-hour before the test. The first administration was made immediately after the first swimming test and just before replacing the animals in their breeding box. The averages of the groups treated were compared with those of the control group by the Dunnett test.

mice [1] = experiment: Test of neuronal protection in mice (kainic acid striatal lesion, serum enolase gamma-gamma); type: in vivo; settings: mouse, 2 μg kainic acid in right striatum; product intraperitoneally 60 minutes before; blood samples 24 hours later; dose not given
Experimental: (3) Test of neuronal protection in mice
A cerebral lesion was carried out on the mouse by injection in the right striatum of 2 μg of kainic acid in a volume of 0.5 μl. […] The products were injected intraperitonally 60 minutes before the neurotoxic and the blood samples were taken 24 hours later.

[2] = tested on: alpha2 adrenergic receptors; experiment: Affinity for the alpha2 adrenergic receptors (3H rauwolscine displacement, rat cortex membranes); type: binding; settings: 3H rauwolscine 0.15 nM, 45 minutes at 25° C., from CD (phentolamine) and CX (product) concentrations inhibiting 50% of specific fixation
Experimental: (1) Affinity for the alpha2 adrenergic receptors
10 cortices removed from the brains of male rats weighing an average of 150 g were homogenized in 90 ml of sucrose 0.32M and after centrifuging the homogenized mixture at 1,000 g for 10 minutes at 0° C., the supernatant was centrifuged at 30,000 g for 10 minutes at 0° to 4° C. The new residue obtained was suspended in 480 ml of NaKPO4 buffer, pH 7.4, 50 mM. 2 ml of the suspension were then incubated for 45 minutes at 25° C. in the presence of ^3 H rauwolscine at a concentration of 0.15 nM: (i) alone (ii) with increasing concentrations of the product under test, or (iii) to determine the non-specific fixation, with non-radioactive phentolamine at a concentration of 10^-5 M. The incubated suspensions were filtered on Whatman GF/C and the filters were washed three times with 5 ml of NaKPO4 buffer, pH 7.4 at 0° C. The radioactivity of the filters was measured by liquid scintillation.
The affinity of the product tested for the alpha2 adrenegic receptors was given relative to phentolamine as reference product.
CD=concentration of phentolamine inhibiting 50% of the specific fixation of the ^3 H rauwolscine:
CX=concentration of the product under test inhibiting 50% of the specific fixation of the ^3 H rauwolscine.

mice [3] = experiment: Hypobaric anoxia test on mice; type: in vivo; settings: depression of 600 mm Hg, max 3 minutes, intraperitoneally 60 minutes before the test, dose not given
Experimental: (2) Hypobaric anoxia test on mice
This consisted of measuring over a maximum duration of 3 minutes the survival time of mice placed in a 2 liter enclosure in which there was a depression of 600 mm Hg. The products were administered intraperitoneally at a volume of 0.2 ml/10 g 60 minutes before the test.

SMILES	ED50 (Sprague Dawley rats) [mg/kg]	enolase gamma-gamma (mice [1]) [%]	ARL (relative affinity for alpha2 adrenergic receptors, relative to phentolamine) [2]	Survival time (mice [3])
O[C@H]1C[C@@H]2CCCN3CCc4c(n1c1ccccc41)[C@@H]23 [Example 3, (14α, 16α) 14,15-dihydro-20,21-dinoreburnamenin-14-ol]	~10	-24	0.3	+37%
O[C@@H]1C[C@H]2CCCN3CCc4c(n1c1ccccc41)[C@H]23 [Example 4, (3α, 14β) 14,15-dihydro-20,21-dinoreburnamenin-14-ol]	~5	–	57	–
C1=Cn2c3c(c4ccccc42)CCN2CCC[C@@H]1[C@H]32 [Example 6, (16α) 20,21-dinoreburnamenine]	–	–	633	–
C1=Cn2c3c(c4ccccc42)CCN2CCC[C@H]1[C@@H]32 [Example 5, (3α) 20,21-dinoreburnamenine]	–	–	8	–

Reference: patent US5034396A, “Method of treating depression with optically active isomers of 20,21-dinoreburnamenines” (Roussel Uclaf, priority 1987, dated 1991)
